What all share (format): functional
For experiment [1], the system named is Rattus norvegicus. The experiment can be described thus: Gastroprotective activity in rat ethanol-induced damage model following intraperitoneal administration. Further details: concentration or dose not given beside the values.
The test system of experiment [2] is Rattus norvegicus. The experiment can be described thus: Effective dose for gastroprotective activity in rat ethanol-induced damage model following intraperitoneal administration. Conditions: ip.
Experiment [3] has as its system Rattus norvegicus. Description: Compound was tested for gastroprotective activity in rat ethanol-induced damage model following oral administration (0.1 mg/kg).
Experiment [4] concerns Rattus norvegicus. Description: Effective dose gastroprotective activity in rat ethanol-induced damage model following intraperitoneal administration. Conditions: ip.

Molecules are shown by their SMILES.

Consider `O=c1cc(-c2ccccc2)sc2ccccc12`, for which, in the experiment on Rattus norvegicus [1], the Protection is reported as 67%.

The molecule `O=C(/C=C/c1ccccc1)c1ccccc1` [CHALCONE] returned a Protection in the experiment with Rattus norvegicus [1] of 32%.

In the case of `O=c1cc(-c2ccccc2)oc2ccccc12` [FLAVONE], the Protection in the experiment with Rattus norvegicus [1] was determined as 88%. This molecule also came in with an ED50 in the experiment on Rattus norvegicus [2] of 6.9 mg/kg.

The molecule `COc1cccc2oc(C)cc(=O)c12` showed a Protection in the experiment with Rattus norvegicus [1] of 81%.

In turn, `O=c1c(-c2ccccc2)coc2ccccc12` [ISOFLAVONE] displayed a Protection in the experiment on Rattus norvegicus [1] below 10%.

For `CCCCC[C@H](O)/C=C/[C@H]1[C@H](O)CC(=O)[C@@H]1C/C=C\CCCC(=O)O` [DINOPROSTONE], in the experiment on Rattus norvegicus [3], the Protection was 64%.

For the molecule `O=c1cc(-c2cccs2)oc2ccccc12`, the Protection in the experiment on Rattus norvegicus [1] is listed as 82%.

In the case of `COc1cccc2c1C(=O)CC(c1ccccc1)O2` (configuration not stated), the Protection in the experiment on Rattus norvegicus [1] was 32%.

`COc1ccccc1C(=O)CC(=O)c1ccccc1` gave a Protection in the experiment on Rattus norvegicus [1] of 19%.

As for `O=C1CC(c2ccccc2)Oc2ccccc21` (configuration not stated) [FLAVANONE], the Protection with Rattus norvegicus [1] turned out to be 24%.

In the experiment with Rattus norvegicus [3], `CN/C(=N\CCSCc1nc[nH]c1C)NC#N` [CIMETIDINE] registered a Protection of 14%.

`S=c1cc(-c2ccccc2)oc2ccccc12` yielded a Protection in the experiment on Rattus norvegicus [1] of 58%.

In the experiment with Rattus norvegicus [1], `Nc1ccccc1C(=O)/C=C/c1ccccc1` returned a Protection of 36%.

The molecule `O=c1cc(-c2cccnc2)oc2ccccc12` had a Protection in the experiment with Rattus norvegicus [1] of 97%.

`Oc1cc(-c2ccccc2)nc2ccccc12` came in with a Protection in the experiment on Rattus norvegicus [1] of 17%.

Regarding `CCc1cc(=O)c2ccccc2o1`, the median effective dose (ED50) with Rattus norvegicus [4] is 4.3 mg/kg. For the same molecule, the Protection in the experiment on Rattus norvegicus [1] is 74%.

Regarding `Cc1cc(=O)c2ccccc2o1`, the Protection with Rattus norvegicus [1] is 76%. This molecule came in with a median effective dose (ED50) with Rattus norvegicus [2] of 5.4 mg/kg.

Turning to `CC(C)Oc1ccc2c(=O)c(-c3ccccc3)coc2c1` [IPRIFLAVONE], the Protection in the experiment on Rattus norvegicus [1] is listed as below 10%.

In turn, `Cn1c(-c2cc(=O)c3ccccc3o2)cc2ccccc21` had a Protection in the experiment with Rattus norvegicus [1] of 74%.

Values taken from ChEMBL document CHEMBL1149989, “Synthesis and biological evaluation of flavonoids and related compounds as gastroprotective agents” (1996).
